Among the data in PubChem BioAssay (NCI) are TGI values, retold here.

Structures are written as SMILES.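 Cells were grown in 96-well plates and exposed to each compound for 48 hours at five concentrations; endpoints were interpolated linearly between bracketing concentrations, or set to the highest concentration if not reached. TGI: concentration producing complete growth inhibition.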

Test systems include U251 CNS; CAKI-1 renal; EKVX NSCLC; HS 578T breast; OVCAR-8 ovarian; SK-MEL-28 melanoma; A498 renal; SK-MEL-5 melanoma; OVCAR-4 ovarian; RPMI-8226 leukemia; OVCAR-5 ovarian; M14 melanoma; SF-268 CNS; SF-539 CNS.
Holding throughout (assay): NCI anticancer screen, dose series, 48 h

Regarding `ONC1=Nc2ccccc2OCc2cc(Br)c(Br)cc2COc2ccccc2N=C1NO`, the TGI was 41.8 µM in the assay on U251 CNS; 29.3 µM with CAKI-1 renal; 47.2 µM with EKVX NSCLC; > 69.8 µM in the assay on HS 578T breast; > 47.5 µM with OVCAR-8 ovarian; > 57.5 µM with SK-MEL-28 melanoma. The TGI is 43.2 µM in the assay with A498 renal; 30.4 µM in the assay with SK-MEL-5 melanoma; > 52.6 µM with OVCAR-4 ovarian; 43.4 µM in the assay on RPMI-8226 leukemia; 42.8 µM with OVCAR-5 ovarian; > 54.2 µM in the assay with M14 melanoma. In addition, the TGI with SF-268 CNS was > 57.4 µM.
Regarding `O=c1[nH]cnc2sc(=S)c3c(c12)CCC3`, the TGI in the assay on SF-539 CNS is > 100 µM; in the assay on U251 CNS it was > 100 µM; in the assay with CAKI-1 renal it was 49.4 µM; in the assay on EKVX NSCLC, > 100 µM; in the assay on HS 578T breast, > 100 µM; in the assay with OVCAR-8 ovarian, > 100 µM. The TGI with SK-MEL-28 melanoma is > 100 µM; with SK-MEL-5 melanoma, 42.1 µM; with OVCAR-4 ovarian it was > 100 µM; with RPMI-8226 leukemia, 43 µM; in the assay with OVCAR-5 ovarian, > 100 µM; in the assay on M14 melanoma, > 100 µM. Also, the TGI in the assay with SF-268 CNS is > 100 µM.
Consider `O=c1[nH]c2cc3cccnc3c(Cl)c2nc1CBr`, for which the TGI came out at 26.4 µM in the assay with SF-539 CNS; 32.4 µM in the assay on U251 CNS; 31.9 µM in the assay on CAKI-1 renal; 52.1 µM in the assay on EKVX NSCLC; 28.3 µM with HS 578T breast; 44.4 µM in the assay on OVCAR-8 ovarian. Also, the TGI was found to be 35.6 µM in the assay with SK-MEL-5 melanoma; 34.2 µM in the assay on OVCAR-4 ovarian; 26.3 µM with RPMI-8226 leukemia; 35.9 µM in the assay with OVCAR-5 ovarian; 27.8 µM in the assay with M14 melanoma; 64.7 µM in the assay with SF-268 CNS.
For `COP(=O)(OC)C(NC=O)P(=O)(OC)OC`, the TGI in the assay on SF-539 CNS, in the assay with U251 CNS, in the assay with CAKI-1 renal, with EKVX NSCLC, with HS 578T breast and in the assay with OVCAR-8 ovarian was > 100 µM each time. Moreover, the TGI with SK-MEL-28 melanoma, with A498 renal, in the assay with SK-MEL-5 melanoma, with OVCAR-4 ovarian, in the assay on RPMI-8226 leukemia and in the assay with M14 melanoma was > 100 µM each time. In addition, the TGI in the assay with SF-268 CNS was > 100 µM.
As for `COc1cc(OC)cc(-n2c(N)c(-c3nc4ccccc4n3C)c3ccc([N+](=O)[O-])cc3c2=O)c1`, the TGI is > 100 µM in the assay with U251 CNS; > 100 µM in the assay on CAKI-1 renal; 83.3 µM in the assay with HS 578T breast; > 100 µM in the assay with OVCAR-8 ovarian; > 100 µM in the assay with SK-MEL-28 melanoma; > 100 µM in the assay with A498 renal. The TGI is > 100 µM in the assay on SK-MEL-5 melanoma, 88.4 µM in the assay with OVCAR-4 ovarian, > 100 µM with RPMI-8226 leukemia and > 100 µM in the assay on SF-268 CNS.
Consider `N#CC12C(=O)N3C(=NC(c4ccccc4)NC3c3ccccc3)C1(C#N)C(c1ccccc1)NC1=C2CCCC1` (stereo unspecified), for which the TGI in the assay with U251 CNS, in the assay with CAKI-1 renal, in the assay with EKVX NSCLC, with HS 578T breast, with OVCAR-8 ovarian and in the assay with SK-MEL-28 melanoma was > 100 µM in each case. The TGI with A498 renal, in the assay on SK-MEL-5 melanoma, in the assay with OVCAR-4 ovarian, in the assay with RPMI-8226 leukemia, in the assay with OVCAR-5 ovarian and in the assay with M14 melanoma was > 100 µM each time. Moreover, in the assay on SF-268 CNS, the TGI is > 100 µM.
With `CCCCCn1c(=O)c2c(=O)[nH][nH]c2c2ccccc21`, the TGI with SF-539 CNS, with U251 CNS, in the assay on CAKI-1 renal, in the assay with HS 578T breast, in the assay on OVCAR-8 ovarian and in the assay on SK-MEL-28 melanoma was > 100 µM each time. In addition, the TGI in the assay on A498 renal, in the assay on SK-MEL-5 melanoma, in the assay with OVCAR-4 ovarian, with RPMI-8226 leukemia, in the assay on OVCAR-5 ovarian and in the assay on SF-268 CNS was > 100 µM each time.
On to `C[C@@H]1CC[C@@H](C)[C@](C)(CCc2ccoc2)C/C=C\C=C/1C(=O)O`, for which the TGI in the assay on SF-539 CNS, in the assay with U251 CNS, in the assay with CAKI-1 renal, with EKVX NSCLC, in the assay with HS 578T breast and in the assay on OVCAR-8 ovarian was > 50 µM each time. Further, the TGI in the assay with SK-MEL-28 melanoma, in the assay with A498 renal, in the assay on SK-MEL-5 melanoma, with OVCAR-4 ovarian, with OVCAR-5 ovarian and in the assay on M14 melanoma was > 50 µM in each case.
For `CC(=O)CC(C)(C)NC(=O)[C@@]1(O)CC[C@H]2[C@@H]3CCC4=CC(=O)CC[C@@H]4[C@H]3CC[C@@]21C`, the TGI with SF-539 CNS, in the assay on U251 CNS, in the assay with EKVX NSCLC, in the assay on HS 578T breast, in the assay on OVCAR-8 ovarian and in the assay on SK-MEL-28 melanoma was > 100 µM in each case. For the same compound, the TGI in the assay with A498 renal, in the assay with SK-MEL-5 melanoma, in the assay with OVCAR-4 ovarian, with RPMI-8226 leukemia, with OVCAR-5 ovarian and in the assay with M14 melanoma was > 100 µM each time. In the assay on SF-268 CNS, the TGI was > 100 µM.
On to `[N-]=[N+]=NC[C@H]1OCO[C@H](CN=[N+]=[N-])[C@H]2OCCOCCOc3ccccc3OCCOCCO[C@@H]21`, for which the TGI in the assay with SF-539 CNS, in the assay on U251 CNS, in the assay on CAKI-1 renal, in the assay with EKVX NSCLC, with HS 578T breast and in the assay on OVCAR-8 ovarian was > 100 µM each time. Moreover, the TGI with SK-MEL-28 melanoma, with SK-MEL-5 melanoma, with OVCAR-4 ovarian, in the assay on RPMI-8226 leukemia, with M14 melanoma and with SF-268 CNS was > 100 µM in each case.
Turning to `S=C(N/N=C\c1ccccn1)N(Cc1ccccn1)Cc1ccccn1`, the TGI in the assay on SF-539 CNS is > 100 µM; with U251 CNS, > 40 µM; with CAKI-1 renal, 14.6 µM; in the assay with EKVX NSCLC, 17.2 µM; in the assay with HS 578T breast it was > 74.4 µM; in the assay with OVCAR-8 ovarian, 12.7 µM. Moreover, the TGI in the assay with SK-MEL-28 melanoma is > 49.7 µM; with SK-MEL-5 melanoma, 16.8 µM; in the assay on OVCAR-4 ovarian it was 18.7 µM; with RPMI-8226 leukemia it was > 38.8 µM; in the assay on OVCAR-5 ovarian, 63.9 µM; with M14 melanoma, 43.7 µM. This compound also returned a TGI in the assay on SF-268 CNS of 30.9 µM.
